Holding throughout (format): in vivo
One test deals with Mature female rats. Briefly: Endocrine profile (thymus, adrenal, body weight, food consumption) after oral medication for 2 weeks. Particulars: compared with the controls. The procedure: The test procedures used to determine the biological activities of the compounds of the invention were carried out as follows: • Endocrine Profile: Mature female rats with an average body weight of 202 g and a body weight range of 15 g or less were medicated orally with test compound for 2 weeks. The test compound was prepared as a solution or suspension in 1% gum tragacanth or 0.75% methyl cellulose. On the day following the last medication, the rats were killed and the thymus and adrenal of each rat were removed, cleaned, and weighed. Body weights and food consumptions were also recorded.

For a further test, the system named is Male rats. Briefly: Anti-inflammatory activity (a-tocopherol pouch test). The procedure: Male rats which weighed 120 g were selected for testing. A rapid subcutaneous injection of 25 mL of air was made between the scapulae of each rat. […] The test compound was administered in daily oral doses for 7 days beginning on the day of pouch formation. The compound to be tested was suspended in 1% gum tragacanth. Twenty-four hours after the last medication, the pouches were dissected free, and the fluid volume was measured.

For test [1], the system named is Mature male rats, bilaterally adrenalectomized. Briefly: Glycogenic activity (liver glycogen deposition test). The note with it: for liver glycogen deposition: adrenalectomized male rats, vehicle 1.75 + 0.04 mg/g. The source says: Glycogenic Activity: Mature male rats were bilaterally adrenalectomized 5 days prior to the test. These rats were medicated orally with the test compound for 5 days. Seven hours after the last medication, the rats (which have been fasted overnight) were anesthetized with sodium pentobarbital and a portion of one lobe of the liver was removed and frozen on dry ice for subsequent glycogen determination.

Each structure is given as a SMILES string.

The term ED50 denotes the midpoint of the dose-response relation. Read a high ED50 as a need for a large dose. As to `CC(=O)C1CC=C2C(CCC3=Cc4c(cnn4-c4ccc(F)cc4)CC32C)C1C(C)=O` (single isomer, unassigned) [Compound I (R = CH3), 1,1'-[8-(4-Fluorophenyl)-2,3,4,4a,5,6,11,11a-octahydro-11a-methyl-8H-phenanthro[2,3-c]pyrazole-3,4-diyl]bis[ethanone]], in the test on Mature female rats (5 mg/kg), the “reduction in adrenal weight” value was 40%, the “reduction in body weight gain” value was 80% and the “reduction in weight of the thymus” value was found to be 59%. The molecule also displayed an ED50 in the test with Male rats (Rattus norvegicus, 168 h, daily oral doses for 7 days, male rats, inhibition of liquid exudate) of 23 mg/kg. Also, the “anti-inflammatory activity by the a-tocopherol pouch test” value in the test with Male rats (rats, result in words) was “anti-inflammatory activity”. Also, in test [1] (9 mg/kg/day x 5, oral), the liver glycogen deposition was 9.42 + 0.65 mg/g of tissue. The liver glycogen deposition in test [1] (27 mg/kg/day x 5, oral) is on record as 25.48 + 3.39 mg/g of tissue. Moreover, the “oral glucocorticoid activity by the liver glycogen deposition test” value in test [1] (rats, oral, result in words) is “oral glucocorticoid activity”.

Take `CCOC(=O)C1(C(=O)OCC)CCC=C2C1CCC1=Cc3c(cnn3-c3ccc(F)cc3)CC12C` (stereo not drawn) [Compound II (R = CH2CH3), Diethyl 8-(4-fluorophenyl)-2,3,4,4a,5,6,11,11a-octahydro-11a-methyl-8H-phenanthro[2,3-c]pyrazole-4,4-dicarboxylate]: in the test on Mature female rats (100 mg/kg), the “reduction in adrenal weight” value amounted to 47%, the “reduction in body weight gain” value was 186% and the “reduction in thymus weight” value is given as 80%. In the test with Male rats (100 mg/kg, daily oral doses for 7 days, male rats), the “activity in the a-tocopherol pouch test” value is “inactive”.
